Source: the METLIN SMRT retention time set (Domingo-Almenara et al. 2019)

Experiment: gradient 5% acetonitrile 3 min, to 50% in 2 min, to 85% in 15 min, held 3 min, 100 µL/min
Conditions: column: Zorbax Extend-C18 2.1 x 50 mm; eluents: water / acetonitrile, 0.1% formic acid
Method in brief: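 In both positive and negative ionization mode, a quadrupole time-of-flight mass spectrometer coupled to HPLC analyzed pure standards run in mixtures of ~100 molecules. The Zorbax Extend-C18 column (2.1 × 50 mm, 1.8 μm) was operated at 100 μL/min with water and acetonitrile, each containing 0.1% formic acid. The dead volume was 40 μL and the dwell volume 900 μL. Retention time came from adduct peaks that were computationally picked and individually inspected by hand.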

Compound CCOC(=O)N1CCN(c2nc(F)c3c(c2F)S(=O)(=O)CCN3Cc2cccnc2)CC1 has an RP-LC retention time of 636 s.

O=C(Nc1ccc2ccccc2c1)c1ccc(Cl)cc1Cl gave an RP-LC retention time of 1130 s.

CCOC(=O)c1cc(C2CC2)nc2c1c(=O)n(CC(=O)NC1CCCC1)c(=O)n2C showed an RP-LC retention time of 952 s.

Work on Cc1ccc(C)c(NC(=O)N2CCCC2c2nncn2-c2ccccc2)c1 (stereo not drawn) yielded an RP-LC retention time of 729 s.

Work on O=S(=O)(c1ccc2c(c1)-c1oncc1CO2)N1CCN(c2ccccc2)CC1 yielded an RP-LC retention time of 1030 s.

In the case of O=C(Nc1cc(-c2ccccn2)no1)c1ccccc1Br, the RP-LC retention time is reported as 789 s.

CCOc1ccc(/C=C/C(=O)Nc2nc(-c3ccc(C)cc3)cs2)cc1OC gave an RP-LC retention time of 1150 s.

O=C(NCC1CCCO1)C(=O)Nc1ccc(OC(F)(F)F)cc1 (stereo not drawn) showed an RP-LC retention time of 834 s.

With CN1c2ccc(Cl)cc2C(=O)NC12CCN(C(=O)c1ccc3c(c1)OCO3)CC2 the RP-LC retention time was 769 s.

Work on CCCCCn1c(=O)c2ccccc2n(Cc2nc(-c3ccc(OCC)c(OC)c3)no2)c1=O yielded an RP-LC retention time of 1230 s.

Compound C=CC(=O)N1C/C(=C\c2ccccc2)C(=O)/C(=C/c2ccccc2)C1 has an RP-LC retention time of 930 s.

Cc1ccc(CCC(=O)Nc2nc(-c3ccc4c(c3)NC(=O)C(C)O4)c(C)s2)cc1 (stereo not drawn) gave an RP-LC retention time of 1010 s.

With COC(=O)C(NC(=O)N1CCCn2nc(-c3ccncc3)cc2C1)c1ccccc1 (stereo not drawn) the RP-LC retention time was 606 s.

Compound CC(C)N1C(=O)c2cccnc2Sc2cc(NC(=O)c3ccc(F)c(F)c3)ccc21 has an RP-LC retention time of 925 s.

COc1ccc(NC(=O)N2C[C@@H](F)C[C@H]2C(=O)N2CCc3ccccc3C2)cc1 gave an RP-LC retention time of 763 s.

COc1ccc(C(O)CN2CCN(c3ncccn3)CC2)cc1 (stereo not drawn) gave an RP-LC retention time of 747 s.

For Cc1ccccc1-c1nc2cnccn2c1NCCC(=O)NCc1cc(F)cc(F)c1, the RP-LC retention time was 693 s.

Cc1cccc(NC(=O)CN2CCN(Cc3nc4ccccc4[nH]3)CC2)c1C gave an RP-LC retention time of 541 s.

CCCNC(=O)N1CCCN(C2=NS(=O)(=O)C(c3ccc(C)c(C)c3)=C2C)CC1 showed an RP-LC retention time of 809 s.

Work on COc1ccc(C)cc1NC(=O)C(=O)NCCc1csc(-c2ccc(Cl)cc2)n1 yielded an RP-LC retention time of 1280 s.

In the case of CC(C)c1noc(-c2cc(=O)n(CC(=O)Nc3cccc(Cl)c3)c3ccccc23)n1, the RP-LC retention time is reported as 1070 s.

Compound CCCCNC(=O)Cc1csc(-n2nc(C)c(Cl)c2C)n1 has an RP-LC retention time of 763 s.

In the case of O=C(Nc1ccc2c(c1)CN(C(=O)c1cccs1)CC2)c1cnccn1, the RP-LC retention time is reported as 708 s.

Work on COc1ncc(C(=O)NCc2cc(F)cc(F)c2)cn1 yielded an RP-LC retention time of 718 s.

COc1ccc(-c2noc(Cn3nc(-c4cccc(OC)c4)ccc3=O)n2)cc1 showed an RP-LC retention time of 974 s.

Compound CCN(CC)C(=O)c1ccc(-c2nc3cc(NS(=O)(=O)c4cccs4)ccc3n2C)cc1 has an RP-LC retention time of 679 s.

Fc1cccc(-n2cc(-c3noc(-c4ccccc4F)n3)nn2)c1 gave an RP-LC retention time of 1050 s.

O=C(C1CCN(c2nccnc2Sc2ccccc2)CC1)N1CCOCC1 showed an RP-LC retention time of 798 s.

In the case of CNC(=O)N1CCCC(c2cccc(C(=O)NCc3ccc(N(C)C)cc3)c2)C1 (stereo not drawn), the RP-LC retention time is reported as 607 s.

For O=C(CCn1cnc2cc(-c3noc(/C=C/c4ccccc4)n3)ccc21)N1CCCC1, the RP-LC retention time was 792 s.

With CCOC(=O)c1nc(N(CC)c2cccc(C)c2)c2ccccc2n1 the RP-LC retention time was 1050 s.

CC(C)C(=O)OC[C@H]1O[C@@H](n2ccc(N)nc2=O)[C@](C)(F)[C@@H]1OC(=O)C(C)C gave an RP-LC retention time of 799 s.

CC(C)Cn1c(=O)c2cc(C(=O)NCc3ccncc3)nn2c2ccccc21 gave an RP-LC retention time of 657 s.

COc1cccc(-c2nc(-c3ccc4c(c3)nc(C)c(=O)n4C)no2)c1 gave an RP-LC retention time of 843 s.

In the case of CCn1c(=O)sc2cc(S(=O)(=O)N3CCC(C(=O)NC4CCCCCC4)CC3)ccc21, the RP-LC retention time is reported as 937 s.

With O=c1c2nc(-c3ccc(F)cc3)cn2ccn1-c1ccc(F)cc1 the RP-LC retention time was 795 s.

Compound CCOC(=O)c1ccc(NC(=O)N2CCCC2c2c(C)noc2C)cc1 (stereo not drawn) has an RP-LC retention time of 801 s.

In the case of O=C1CC(NC(=O)C2(c3ccccc3)CCOCC2)CN1C1CC1 (stereo not drawn), the RP-LC retention time is reported as 621 s.

For COc1cccc(CN2CCn3c(nnc3[C@@H]3C[C@@H](O)CN3C)C2)c1, the RP-LC retention time was 574 s.

For Cc1ccc(C)c(NC(=O)NCCn2c(-c3ccncc3)nc3cccnc32)c1, the RP-LC retention time was 638 s.

Compound CN1C(=O)c2cccn2CC1C(=O)NCCc1c[nH]c2ccccc12 (stereo not drawn) has an RP-LC retention time of 690 s.

For Cc1ccc(S(=O)(=O)N2CCC(C)(C(=O)NCc3ccc(F)cc3)CC2)cc1, the RP-LC retention time was 942 s.

Compound Cc1cc(C)cc(S(=O)(=O)N2CCC(CN3CCCCCC3)CC2)c1 has an RP-LC retention time of 708 s.

For COc1ccc(-n2ncc3c(=O)n(Cc4nc(-c5cccc(C)c5)no4)cnc32)cc1, the RP-LC retention time was 1050 s.

Compound CCn1nnc2ccc(-c3noc(-c4ccc(OC)cc4)n3)cc21 has an RP-LC retention time of 1030 s.

In the case of Cc1cccc(N2CCN(C(=O)C3CCCN(c4ncnc5c4nc4n5CCCCC4)C3)CC2)c1C (stereo not drawn), the RP-LC retention time is reported as 1090 s.

With COc1ccccc1CCNS(=O)(=O)c1cc2c3c(c1)CCC(=O)N3CCC2 the RP-LC retention time was 882 s.

O=C1C(N2CCCN(S(=O)(=O)c3cc(F)cc(F)c3)CC2)CCN1CC1CC1 (stereo not drawn) gave an RP-LC retention time of 661 s.

For Cc1ccc(CNC(=O)N2C[C@@H](F)C[C@H]2C(=O)N2CCc3ccccc3C2)cc1, the RP-LC retention time was 887 s.

Compound Cc1nc(-c2ccccc2)sc1C(=O)Nc1nc(-c2ccc(F)cc2)cs1 has an RP-LC retention time of 1250 s.

Cc1cc(C(=O)Nc2nc(-c3ccc(Cl)cc3)c(C)s2)no1 gave an RP-LC retention time of 1110 s.

With CCCn1cnc2cc(CNC(=O)C3CCCC3)ccc21 the RP-LC retention time was 590 s.

For CCc1nc(-c2csc(S(=O)(=O)N3CCCC(C(=O)Nc4cccc(C)n4)C3)c2)no1 (stereo not drawn), the RP-LC retention time was 869 s.

For O=C(CSc1nnc(NC(=O)COc2ccc(Cl)cc2)s1)NCc1ccco1, the RP-LC retention time was 768 s.

Compound Cc1ccc(NC(=O)CSc2nc3nc(C)cc(C)n3n2)cc1 has an RP-LC retention time of 726 s.

Compound Cc1c(C(=O)Nc2cc(=O)n(C)c(=O)n2C)cccc1[N+](=O)[O-] has an RP-LC retention time of 652 s.

In the case of CC(=O)N1CCCN(C2=NS(=O)(=O)C(c3ccc(C)c(C)c3)=C2C)CC1, the RP-LC retention time is reported as 630 s.

Work on CSc1nnc(-c2nn(C)c3c2CN(C(=O)c2c(F)cccc2Cl)CC3)n1C yielded an RP-LC retention time of 728 s.

Compound Fc1ccc(OCc2nc(-c3ccc4c(c3)ncn4CCN3CCCCC3)no2)cc1 has an RP-LC retention time of 654 s.

CCN1C(=O)CCc2cc(NC(=O)c3ccsc3)ccc21 gave an RP-LC retention time of 715 s.

Work on CCOc1ccc(NC(=O)Cn2nc(N3CCOCC3)c3ccccc3c2=O)cc1 yielded an RP-LC retention time of 774 s.

O=S(=O)(CCOc1ccccc1)NCc1ccccc1 gave an RP-LC retention time of 674 s.

In the case of CCOC(=O)c1c(CN2CCOCC2)n(C)c2cc(-c3cccnc3)c(O)cc12, the RP-LC retention time is reported as 535 s.

For C=CC(C)(C)c1cc(/C=C/C(=O)c2ccc(O)cc2)c(OC)cc1O, the RP-LC retention time was 903 s.

Compound CNC(=O)c1cc2nc(N(C)C)n(-c3ccc(OC)cc3)c2s1 has an RP-LC retention time of 888 s.

CS(=O)(=O)N1CCN(CCNC(=O)NCc2cccc3ccccc23)CC1 gave an RP-LC retention time of 570 s.

In the case of COc1cc([C@@H]2c3cc4c(cc3[C@H](O)[C@@H](CO)[C@@H]2C(=O)NCc2ccc(OC(C)C)cc2)OCO4)cc(OC)c1OC, the RP-LC retention time is reported as 770 s.

With CN(CCc1noc(COc2cccc(C(F)(F)F)c2)n1)C(=O)c1ccco1 the RP-LC retention time was 919 s.

Cc1cc(N2CCOCC2)n2nc(CN3CCc4ccccc4C3)nc2n1 showed an RP-LC retention time of 590 s.

For CCCn1cnc2ccc(-c3noc(-c4cccc(OC)c4)n3)cc21, the RP-LC retention time was 728 s.

Compound COC(=O)COc1cc(-c2cccc(Cl)c2)nc2ccc(NC(=O)c3ccco3)cc12 has an RP-LC retention time of 886 s.

For CCCS(=O)(=O)N1CCC(N2C[C@H](Oc3ccccc3)[C@@H]2c2ccncc2)CC1, the RP-LC retention time was 685 s.

For Cc1ncsc1CN1CC(n2cc(C(=O)NCC3CC3)nn2)C1, the RP-LC retention time was 575 s.

With COc1ccccc1CC(=O)N1CCCC1c1c(C)noc1C (stereo not drawn) the RP-LC retention time was 753 s.

Cc1cccc(OCC(=O)N(Cc2ccc(N(C)C)cc2)C2CCS(=O)(=O)C2)c1C (stereo not drawn) gave an RP-LC retention time of 798 s.

For Cc1cccc(S(=O)(=O)N2CCC(c3cc(=O)n4nccc4n3C)CC2)c1, the RP-LC retention time was 718 s.

Work on Cc1nc(NC(=O)c2cc(C3CC3)n(C3CCS(=O)(=O)C3)n2)sc1C (stereo not drawn) yielded an RP-LC retention time of 764 s.

In the case of Cc1ccccc1-c1nc(-c2nnn(Cc3ccccc3)c2C)no1, the RP-LC retention time is reported as 1120 s.

Compound CCc1nc(-c2cc3ccccc3nc2N2CCN(c3ccc(OC)cc3)CC2)no1 has an RP-LC retention time of 687 s.

COc1ccc(NC(=O)c2sc(-c3cn(C(C)C)c4ncccc34)nc2C)cc1 showed an RP-LC retention time of 902 s.

In the case of O=C(c1ccccn1)N1CCC2(CC1)NC(=O)N(Cc1ccccc1Cl)C2=O, the RP-LC retention time is reported as 716 s.

Work on O=C1CCCc2cc(S(=O)(=O)N3CCC(C(=O)NCCC4=CCCCC4)CC3)ccc2N1 yielded an RP-LC retention time of 796 s.

In the case of Cc1ccccc1-c1noc(N2CCC(C(=O)NCc3ccc4c(c3)OCO4)CC2)n1, the RP-LC retention time is reported as 942 s.

Work on O=S(=O)(c1ccc(-c2nnc(C3CC3)o2)o1)N1CCN(C2CCCCC2)CC1 yielded an RP-LC retention time of 642 s.

For O=S(=O)(c1cccc(-c2cn3cc(Cl)ccc3n2)c1)N1CCCCCC1, the RP-LC retention time was 944 s.

CN1CCN(C(=O)C2CCN(c3nc4ccc(-c5ccsc5)nc4s3)CC2)CC1 gave an RP-LC retention time of 651 s.

COCCNC(=O)CN1c2ccc(F)cc2-c2ccccc2S1(=O)=O gave an RP-LC retention time of 756 s.

Compound COc1ccc(CNC(=O)CN2CCN(Cc3ccc(F)cc3)C2=O)c(OC)c1 has an RP-LC retention time of 793 s.
